Experimental data taken from patent US5665724A, “Substituted pyrimidinylaminothiazole derivatives useful as platelet aggregation inhibitors” (Ortho Pharmaceutical Corporation, priority 1995, dated 1997).
pIC50: −log10 of the molar value.

Key:
[1] = system: fibrinogen binding to activated platelets; experiment: 125I-Fibrinogen binding to activated platelets; conditions: thrombin-activated platelets, 125I-fibrinogen 0.15 μM; for % Inhibition Fibrinogen Binding @ 30 μM: 30 μM compound, 10 minutes, room temperature; for pIC50: printed in column % Inhibition Fibrinogen Binding @ 30 μM, read-out: Fibrinogen Binding, IC50 (concentration given in lieu of a percentage)
Protocol: The compounds of the invention as identified above are evaluated for platelet aggregation inhibition activity as indicated by the percentage of non-aggregated platelets which are available for binding in accordance with the following procedure.
^125 I-Fibrinogen binding to activated platelets is a modification of the procedure described by Bennett et al., 1988. Briefly, 40 mL of PRP (obtained from Biological Specialty Corp., Lansdale, Pa.) are centrifuged at 120×g to remove contaminating red cells. Aspirin (50 μM) is added and the PRP is incubated at 37° C. for 20 minutes. The pH of the PRP is adjusted to 6.5 with 3.8% sodium citrate and 0.9 μM of PGE1 is added. Platelets are concentrated by a 300×g centrifugation (10 minutes) and the pellet is resuspended in 4 mL. of Tyrode's buffer. The platelet suspension (4 mL) is gel-filtered through a Sepharose-2B column (50 mL bed volume). The platelet count is adjusted to 1×10^8 platelets per 200 mL. The binding reaction is performed in polystyrene tubes (final volume […]). Reagents are added in the following order: 80 mL of Tyrode's buffer, 50 mL of CaCl2 (final concentration (f.c.) […]) and 50 mL of thrombin (f.c. 0.1 unit/mL). The platelet suspension is then added and the mixture is allowed to incubate at room temperature for 2 minutes. Hirudin (50 mL, f.c. 0.5 unit/mL) is immediately added to prevent the catalytic activity of thrombin. Various concentrations of the compound to be tested […] with the competing radioligand ^125 I-fibrinogen (f.c. of 0.15 μM) are added. The mixture is incubated for 10 minutes at room temperature. To terminate the binding reaction the platelets are sedimented (10,000×g for 3 minutes) through silicone oil (3:1 hi-phenol 550/methyl silicone 200, W. F. Nye, Inc., New Bedford, Mass.), in an Eppendorf centrifuge.
The tips of the centrifuge tubes containing the pelleted platelets are cut off and counted for ^125 I-fibrinogen associated with the stimulated platelets. The amount of platelet radioactivity measured in the presence of nonlabeled fibrinogen (4 mg/mL) is considered the nonspecific binding. All samples are repeated in triplicate.
Data are expressed as a percent at concentrations of 30 μM of specifically bound ^125 I-fibrinogen to the platelets in Table 6 below. Positive percentages of fibrinogen binding indicates higher activity for inhibiting platelet aggregation since only non-aggregated or free platelets are available for fibrinogen binding. Alternatively, a concentration is provided in lieu of a percentage to indicate the IC50 of concentration of compound which provides 50% fibrinogen binding.

[2] = system: platelets (platelet aggregation); experiment: Platelet aggregation inhibition (gel-filtered platelets, thrombin or ADP agonist, aggregometer); type: cell-based; conditions: 37° C.; for inhibition at 50 µM: Platelet, 50 μM compound, three minutes; for pIC50: % Inhibition Platelet Aggregation @ 50 μM, read-out: Platelet Aggregation, concentration given in lieu of a percentage (IC50)
Protocol: The percentage of platelet aggregation is calculated as an increase in light transmission of drug treated platelet concentrate vs control treated platelet concentrate. Blood is obtained from drug free, normal donors and placed into tubes containing 0.13M sodium citrate (two sources are routinely used: platelet concentrate obtained from Biological Specialty Corp., Lansdale, Pa. or whole blood obtained from donors). Platelet rich plasma (PRP) is collected by centrifugation of the concentrate or whole blood at 130×g for 15 minutes at 25° C. The PRP (5 mL) is gel filtered through Sepharose 2B (bed volume 50 mL), and the platelet count is adjusted to 2×10^7 platelets per sample. The following constituents are added to a siliconized cuvette: 250 μL of the concentrated platelet filtrate, 100 μL of Tyrode's buffer (0.14M NaCl, 0.0027M KCl, 0.012M NaHCO3, 0.76 mM Na2 HPO4, 0.0055M glucose and 2 mg/mL BSA pH 7.4), 50 μL of 2 mM calcium and test drug […]. Aggregation is monitored in a dual channel Chrono-log Aggregometer for three minutes following the addition of agonist (thrombin 50 μL of 1 unit/mL, or ADP 50 μL of 100 μM). The final assay volume is 500 μL. The reaction takes place at 37° C. The peak aggregation response is calculated as the increase in light transmission units over a three minute period. The difference of the increase in light transmission between control and drug treated platelets is then expressed as a percent of the nondrug treated controls.

`CCN(CC)CCCNC(=O)c1cnc(Nc2nc(-c3ccc(C)cc3)cs2)nc1C(F)(F)F` [Cmpd 2] was tested, and the “% Inhibition Fibrinogen Binding @ 30 μM” value [1] was 12% and the inhibition at 50 µM [2] was 75%.
For `O=C(NCCCn1ccnc1)c1cnc(Nc2nc(-c3cccc(C(F)(F)F)c3)cs2)nc1C(F)(F)F` [Cmpd 3], the “% Inhibition Fibrinogen Binding @ 30 μM” value [1] was 4% and the inhibition at 50 µM [2] was 55%.
`NCCCNC(=O)c1cnc(Nc2nc(-c3cccc(C(F)(F)F)c3)cs2)nc1C(F)(F)F` [Cmpd 4] was tested, and the “% Inhibition Fibrinogen Binding @ 30 μM” value [1] was 50% and the pIC50 [2] was 5.00.
`COc1ccc(-c2csc(Nc3ncc(C(=O)NCCCN(C)C)c(C(F)(F)F)n3)n2)cc1` [Cmpd 5] was tested, and the “% Inhibition Fibrinogen Binding @ 30 μM” value [1] was 47% and the inhibition at 50 µM [2] was 96%.
`O=C(NCCCNC1CCCCC1)c1cnc(Nc2nc(-c3cccc(C(F)(F)F)c3)cs2)nc1C(F)(F)F` [Cmpd 6] gave a pIC50 [1] of 4.52 and a pIC50 [2] of 4.82.
For `O=C(NCCCN1CCCCCC1)c1cnc(Nc2nc(-c3cccc(C(F)(F)F)c3)cs2)nc1C(F)(F)F` [Cmpd 7], the “% Inhibition Fibrinogen Binding @ 30 μM” value [1] was 14% and the inhibition at 50 µM [2] was 95%.
`O=C(NCCCNC1CCCC1)c1cnc(Nc2nc(-c3cccc(C(F)(F)F)c3)cs2)nc1C(F)(F)F` [Cmpd 8] was tested, and the “% Inhibition Fibrinogen Binding @ 30 μM” value [1] was 50% and the inhibition at 50 µM [2] was 85%.
`CCCCNCCCNC(=O)c1cnc(Nc2nc(-c3cccc(C(F)(F)F)c3)cs2)nc1C(F)(F)F` [Cmpd 9] was tested, and the pIC50 [1] was 5.47 and the inhibition at 50 µM [2] was 96%.
With `O=C(NCCCNC1CCCCC1)c1cnc(Nc2nc(-c3cccc(C(F)(F)F)c3)cs2)nc1-c1ccccc1` [Cmpd 10] the “% Inhibition Fibrinogen Binding @ 30 μM” value [1] was 15% and the inhibition at 50 µM [2] was 25%.
For `O=C(NCCCN1CCCC1=O)c1cnc(Nc2nc(-c3cccc(C(F)(F)F)c3)cs2)nc1C(F)(F)F` [Cmpd 11], the “% Inhibition Fibrinogen Binding @ 30 μM” value [1] was 10% and the inhibition at 50 µM [2] was 25%.
`CN1CCN(CCCNC(=O)c2cnc(Nc3nc(-c4cccc(C(F)(F)F)c4)cs3)nc2C(F)(F)F)CC1` [Cmpd 12] was tested, and the “% Inhibition Fibrinogen Binding @ 30 μM” value [1] was 47% and the inhibition at 50 µM [2] was 90%.
`O=C(NCCCN1CCCCC1)c1cnc(Nc2nc(-c3cccc(Cl)c3)cs2)nc1C(F)(F)F` [Cmpd 13] was tested, and the “% Inhibition Fibrinogen Binding @ 30 μM” value [1] was 16% and the inhibition at 50 µM [2] was 94%.
In the case of `O=C(NCCCN1CCCCCC1)c1cnc(Nc2nc(-c3cccc(Cl)c3)cs2)nc1C(F)(F)F` [Cmpd 14], the “% Inhibition Fibrinogen Binding @ 30 μM” value [1] was 15% and the inhibition at 50 µM [2] was 98%.
In the case of `O=C(NCCCNC1CCCCC1)c1cnc(Nc2nc(-c3cccc(Cl)c3)cs2)nc1C(F)(F)F` [Cmpd 15], the “% Inhibition Fibrinogen Binding @ 30 μM” value [1] was 73% and the pIC50 [2] was 4.83.
For `CCCNCCCNC(=O)c1cnc(Nc2nc(-c3cccc(Cl)c3)cs2)nc1C(F)(F)F` [Cmpd 16], the “% Inhibition Fibrinogen Binding @ 30 μM” value [1] was 20% and the inhibition at 50 µM [2] was 96%.
For `CCCCNCCCNC(=O)c1cnc(Nc2nc(-c3ccc(C)cc3)cs2)nc1C(F)(F)F` [Cmpd 17], the “% Inhibition Fibrinogen Binding @ 30 μM” value [1] was 43% and the inhibition at 50 µM [2] was 36%.
`Cc1sc(Nc2ncc(C(=O)NCCCNC3CCCCC3)c(C(F)(F)F)n2)nc1-c1ccccc1` [Cmpd 18] was tested, and the “% Inhibition Fibrinogen Binding @ 30 μM” value [1] was 47% and the inhibition at 50 µM [2] was 58%.
